Test results as given in doi:10.1101/2024.12.16.628070v1 (bioRxiv, 2024).
Values after ≈ are worked out from the molar mass of the structure shown. Where two headings read alike, the source gives them in different places.

What was measured:
[1] = tested on: Escherichia coli; assay type: cell-based
[2] = tested on: Klebsiella pneumoniae; assay: MIC, broth microdilution; assay type: cell-based
[3] = tested on: Enterobacter cloacae; assay: MIC, broth microdilution; assay type: cell-based
[4] = tested on: Salmonella typhimurium; assay: MIC, broth microdilution; assay type: cell-based; conditions: strain ATCC 14028
[5] = tested on: Salmonella entereditis; assay: MIC, broth microdilution; assay type: cell-based; conditions: strain ATCC 13076
[6] = tested on: Shigella flexneri; assay: MIC, broth microdilution; assay type: cell-based; conditions: strain M90T
[7] = tested on: Acinetobacter baumannii; assay: MIC, broth microdilution; assay type: cell-based
[8] = tested on: Pseudomonas aeruginosa; assay: MIC, broth microdilution; assay type: cell-based
[9] = tested on: Morganella morganii; assay: MIC, broth microdilution; assay type: cell-based
[10] = tested on: Staphylococcus aureus; assay: MIC, broth microdilution; assay type: cell-based
[11] = tested on: Bacillus cereus; assay: MIC, broth microdilution; assay type: cell-based; conditions: strain ATCC 11778
[12] = tested on: Bacillus subtilis; assay: MIC, broth microdilution; assay type: cell-based; conditions: strain ATCC 6633
[13] = target: BamA-β (transmembrane β-barrel domain of BamA) (Escherichia coli, UniProt P0A940, C690S/C700S); assay: Surface Plasmon Resonance affinity to BamA-β in LDAO micelles; assay type: binding
[14] = target: BAM complex (Escherichia coli, UniProt P0A940); assay: Differential Scanning Fluorimetry of BAM complex in nanodiscs; assay type: binding; conditions: read-out: increase in melting temperature (Tm)
[15] = tested on: E. coli M6; assay type: cell-based, Escherichia coli; conditions: after 5-7 days of passage
[16] = Single-dose pharmacokinetic study; assay type: in vivo; conditions: mouse, blood, ip, 50 mg/kg

CC(C)[C@@H]1NC(=O)[C@@H](N)Cc2c[nH]c3cc(ccc23)C(C(N)=O)[C@@H](C(=O)N[C@@H](C)C(=O)N[C@H]2Cc3cccc(c3)C(CCNC(=N)N)[C@@H](C(=O)N[C@H]3Cc4c[nH]c5cc(ccc45)C(CCCN)[C@@H](C(=O)N[C@@H](CO)C(=O)N[C@@H](Cc4ccccc4)C(=O)O)NC(=O)[C@H](CO)NC3=O)NC(=O)[C@H](C)NC2=O)NC1=O (stereo partly shown) [Compound 2, xenorceptide A2]
MIC ([1]; K12 MG1655 BamA F394V, E435K, G443D): 8 µg/mL (≈ 5.36 µM) | MIC ([1]; K12 MG1655 BamA G429V, G807V): 8 µg/mL (≈ 5.36 µM) | MIC ([1]; MG1655 bamA G429C, generated in the present study): 32 µg/mL (≈ 21.4 µM) | MIC ([1]; strain 1 (darobactin-resistant MG1655 strain previously reported)): 8 µg/mL (≈ 5.36 µM) | MIC ([1]; strain 2 (darobactin-resistant MG1655 strain previously reported)): 8 µg/mL (≈ 5.36 µM) | MIC ([1]; strain ATCC 25922 (WT), broth microdilution, MHB, 18-20 h, 37 °C): 2 µg/mL (≈ 1.34 µM) | MIC ([1]; strain CRE1006, broth microdilution, MHB, 18-20 h, 37 °C): 4 µg/mL (≈ 2.68 µM) | MIC ([1]; strain K12 MG1655 (WT)): 2 µg/mL (≈ 1.34 µM) | MIC ([1]; strain M2, broth microdilution, MHB, 18-20 h, 37 °C, repeated three times): 16 µg/mL (≈ 10.7 µM) | MIC ([1]; strain M6, broth microdilution, MHB, 18-20 h, 37 °C): 8 µg/mL (≈ 5.36 µM) | MIC ([1]; strain M10, broth microdilution, MHB, 18-20 h, 37 °C): 4 µg/mL (≈ 2.68 µM) | MIC ([1]; strain M11, broth microdilution, MHB, 18-20 h, 37 °C): 4 µg/mL (≈ 2.68 µM) | MIC ([2]; strain ATCC 700603): 8 µg/mL (≈ 5.36 µM) | MIC ([2]; strain CRE1007): 8 µg/mL (≈ 5.36 µM) | MIC ([2]; strain CRE1008): 8 µg/mL (≈ 5.36 µM) | MIC ([2]; strain CRE1011): 8 µg/mL (≈ 5.36 µM) | MIC ([2]; strain CRE1012): 8 µg/mL (≈ 5.36 µM) | MIC ([2]; strain M7): 64 µg/mL (≈ 42.9 µM) | MIC ([3]; strain CRE1010): 4 µg/mL (≈ 2.68 µM) | MIC ([3]; strain CRE1014): 16 µg/mL (≈ 10.7 µM) | MIC ([3]; strain CRE1015): 32 µg/mL (≈ 21.4 µM) | MIC ([3]; strain CRE1016): 16 µg/mL (≈ 10.7 µM) | MIC ([3]; strain CRE1017): 32 µg/mL (≈ 21.4 µM) | MIC [4]: 8 µg/mL (≈ 5.36 µM) | MIC [5]: 8 µg/mL (≈ 5.36 µM) | MIC [6]: 2 µg/mL (≈ 1.34 µM) | MIC ([7]; strain ACBA1001): 32 µg/mL (≈ 21.4 µM) | MIC ([7]; strain ACBA1002): 32 µg/mL (≈ 21.4 µM) | MIC ([7]; strain ACBA1003): 32 µg/mL (≈ 21.4 µM) | MIC ([7]; strain ACBA1004): 64 µg/mL (≈ 42.9 µM) | MIC ([7]; strain ATCC 19606): >64 µg/mL | MIC ([8]; strain ATCC 9027): 64 µg/mL (≈ 42.9 µM) | MIC ([8]; strain DM4150R): 64 µg/mL (≈ 42.9 µM) | MIC ([8]; strain DM23376): >64 µg/mL | MIC ([8]; strain DR4877/07): 64 µg/mL (≈ 42.9 µM) | MIC ([8]; strain DR5790/07): 64 µg/mL (≈ 42.9 µM) | MIC ([9]; strain ATCC 25830): 32 µg/mL (≈ 21.4 µM) | MIC ([9]; strain CRE1001): 32 µg/mL (≈ 21.4 µM) | MIC ([10]; strain ATCC 29737): >64 µg/mL | MIC ([10]; strain ATCC 43300): >64 µg/mL | MIC [11]: >64 µg/mL | MIC [12]: >64 µg/mL | Kd ([13]; KD, steady state response, SPR, BamA-β, concentration range 0.019 µM to 20 µM): ~800 nM | koff ([13]; read-out: kd (dissociation rate)): 0.0673 s⁻¹ | ΔTm at 20 µM [14]: 3.8 °C | MIC after resistance development in serial passage [15]: 32 µg/mL (≈ 21.4 µM) | Tmax [16]: 2 h | Cmax ([16]; SD): 60.7 µg/mL | half-life ([16]; SD): 2.4 h
